{
  "source": "patent US20170252312A1",
  "about": "“PREPARATIONS FOR TREATMENT AND PREVENTION OF ALCOHOL FLUSHING AND ALCOHOL-INDUCED HYPERSENSITIVITY REACTIONS” (BIOHIT OYJ, priority 2014, published 2017)",
  "origin": "cited, not measured here",
  "key": {"ADH enzyme": {"tested_on": "ADH enzyme", "settings": "ALDH2-deficient individuals"}, "[1]": {"tested_on": "microbial acetaldehyde formation from ethanol"}},
  "data": [
    {"smiles": "Cc1cn[nH]c1", "note": "[4-MP, 4-methylpyrazole]", "values": [
      {"measurement": "alcohol-induced increase in salivary acetaldehyde levels", "setting": "ADH enzyme", "result": "markedly decrease"},
      {"measurement": "flushing response to alcohol", "setting": "ADH enzyme", "result": "suppressed also significantly"},
      {"measurement": "increase in heart rate and skin temperature and drop in diastolic blood pressure", "setting": "ADH enzyme; 4-MP used before ethanol intake", "result": "disappeared"}
    ]},
    {"smiles": "CC=O", "note": "[Acetaldehyde]", "values": [
      {"measurement": "histamine release", "setting": "human mast cells", "result": "enhance histamine release"},
      {"measurement": "histamine release", "setting": "rat mast cells", "result": "enhance histamine release"}
    ]},
    {"smiles": "OC[C@@H](O)[C@H](O)[C@@H](O)CO", "note": "[xylitol]", "values": [
      {"measurement": "inhibition of microbial acetaldehyde formation from ethanol", "setting": "[1]", "result": "inhibit microbial acetaldehyde formation from ethanol"}
    ]}
  ]
}
